Source: US20090298857A1, “Treatment of Neurodegenerative Diseases Through Inhibition of HSP90” (SLOAN-KETTERING INSTITUTE FOR CANCER RESEARCH, priority 2006, published 2009)

Tests used:
[1] = ref. (2); cited from earlier work
[2] = test system: p35 and Tau phosphorylation in cortical region; test: One dose PU-DZ8 in hTau mice; assay type: in vivo; conditions: 75 mg/kg i.p.
Protocol: The majority of Tau pathology in hTau mice is located in the cortical brain region. These mice express six isoforms of non-mutant human Tau, but develop AD-like Tau-pathology. Heat-stable fractions (S1) prepared from cortical homogenates of these mice indicate an age-related accumulation of Tau phosphorylated at putative cdk5 sites. […] Aggregate-free Tau (S1) fractions were prepared from the cortical region of these mice and human Tau levels assessed by immunobloting with an antibody specific for 3-repeat domain Tau (RD3). By analogy to experiments on primary neuronal cultures and WT Tau transfected cells, the Hsp90 inhibitor had no effect on soluble WT Tau expression. […] The monoclonal antibody CP13 is commonly used to detect Tau pathology in both early and more advanced stages of Tau aggregate accumulation (41).

[3] = test system: human TauP301L in JNPL3 mouse brain; test: One dose PU-DZ8 in JNPL3 mice, soluble (S1) and insoluble (P3) Tau; assay type: in vivo; conditions: 75 mg/kg i.p.
Protocol: To investigate whether the human TauP301L present in the JNPL3 line of mice is a sensitive target for Hsp90 inhibition, animals were treated with the brain-barrier permeable Hsp90 inhibitor PU-DZ8. This agent is a higher-potency water soluble derivative of PU24FC1 (EC50JNPL3 brain Hsp90=70 nM). One dose of PU-DZ8 (75 mg/kg) was administered intraperitoneally (i.p.) to female mice of 2.5-4 months in age (n=32) and animals were sacrificed in the interval of 0 to 36 h. Both aggregate-free Tau (S1) and insoluble Tau (P3) fractions were prepared from the subcortical and cortical regions of these mice. Human Tau levels were assessed by immunobloting with a human specific anti-Tau antibody (HT-7). […] We next examined in a 4- to 6-month old mouse group (n=15) whether the stability of mTau as present in tau aggregates (P3 fraction) was additionally regulated by Hsp90.
For experiments designed to test the kinetics of mTau and p35 modulation by Hsp90 inhibitors, animals were administered intraperitoneally (i.p.) 75 mg/kg PU-DZ8 in PBS (6% DMSO). Mice were sacrificed by CO2 euthanasia at the indicated times following PU-DZ8 administration. Hemibrains were separated into cortico-limbic (cortex, amygdale and hippocampus) and subcortical (basal ganglia, diencephalon, brain stem and cerebellum) regions, quickly frozen on dry ice and stored at −80° C. and processed. In summary, each brain piece was weighed and homogenized in three volumes of Tris-buffered saline (TBS) containing protease and phosphatase inhibitors (25 mM Tris-HCl, pH 7.4, 150 mM NaCl, 1 mM EDTA, 1 mM EGTA, 5 mM sodium pyrophosphate, 30 mM p-glycerophosphate, 30 mM sodium fluoride. 1 mM phenylmethylsulfonyl fluoride (PMSF)). The homogenates were centrifuged at 27,000 g for 15 min at 4° C. Supernatants were collected as S1 fractions, and the pellets (P1) were re-homogenized in three volumes of salt/sucrose buffer (0.8 M NaCl, 10% sucrose, 10 mM Tris/HCl, pH 7.4, 1 mM EGTA, 1 mM PMSF) and centrifuged as above. The resulting pellets were discarded and the supernatants were incubated with sarkosyl (Sigma, St Louis, Mo., USA; 1% final concentration) for 1 h at 37° C. The sarkosyl mixtures were then centrifuged at 150,000 g for 30 min at 4° C. The supernatants (S2 fraction) were collected, and the pellets (P3) were resuspended in 50 μL 2% SDS in TBS and stored at −80° C. for western blotting. Proteins were analyzed by Western blot.

P-glycoprotein = P-glycoprotein (Homo sapiens, UniProt P08183); test: P-glycoprotein substrate status; assay type: in vitro ADME
P-glycoprotein, sequence (P08183 whole entry): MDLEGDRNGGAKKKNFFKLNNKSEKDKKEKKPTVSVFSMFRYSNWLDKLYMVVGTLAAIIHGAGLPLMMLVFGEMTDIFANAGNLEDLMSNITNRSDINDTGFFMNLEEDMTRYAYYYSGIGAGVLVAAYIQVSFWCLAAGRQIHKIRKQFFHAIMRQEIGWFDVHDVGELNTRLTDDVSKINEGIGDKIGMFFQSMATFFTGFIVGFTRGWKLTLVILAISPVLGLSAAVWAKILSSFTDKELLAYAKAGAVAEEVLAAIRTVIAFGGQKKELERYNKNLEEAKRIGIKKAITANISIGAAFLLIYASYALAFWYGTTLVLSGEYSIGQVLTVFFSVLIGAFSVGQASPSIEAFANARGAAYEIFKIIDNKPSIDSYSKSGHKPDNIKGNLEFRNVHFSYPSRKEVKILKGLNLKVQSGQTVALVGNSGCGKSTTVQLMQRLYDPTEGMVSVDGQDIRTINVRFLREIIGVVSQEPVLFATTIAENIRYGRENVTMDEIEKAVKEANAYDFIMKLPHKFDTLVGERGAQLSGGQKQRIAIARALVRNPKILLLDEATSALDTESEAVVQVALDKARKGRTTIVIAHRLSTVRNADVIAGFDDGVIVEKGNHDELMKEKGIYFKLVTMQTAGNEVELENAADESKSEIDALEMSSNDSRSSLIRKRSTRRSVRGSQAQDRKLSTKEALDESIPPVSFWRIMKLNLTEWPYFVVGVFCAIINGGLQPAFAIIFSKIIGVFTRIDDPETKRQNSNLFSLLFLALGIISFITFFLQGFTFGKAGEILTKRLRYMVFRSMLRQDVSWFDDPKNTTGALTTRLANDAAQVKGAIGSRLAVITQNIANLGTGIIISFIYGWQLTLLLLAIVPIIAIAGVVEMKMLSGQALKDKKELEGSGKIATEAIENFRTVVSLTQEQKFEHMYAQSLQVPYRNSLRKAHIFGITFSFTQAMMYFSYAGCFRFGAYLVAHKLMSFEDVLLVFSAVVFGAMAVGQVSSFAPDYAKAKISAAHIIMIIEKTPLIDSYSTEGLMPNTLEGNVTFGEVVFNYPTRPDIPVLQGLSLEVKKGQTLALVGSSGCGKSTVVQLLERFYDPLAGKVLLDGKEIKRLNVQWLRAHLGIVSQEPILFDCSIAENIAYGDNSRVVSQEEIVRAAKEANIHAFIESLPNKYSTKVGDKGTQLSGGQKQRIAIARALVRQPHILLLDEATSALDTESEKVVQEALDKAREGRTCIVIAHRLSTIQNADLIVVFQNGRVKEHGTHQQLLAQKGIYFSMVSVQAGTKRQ
Description: Another characteristic which is indicative of the ability to cross the blood brain barrier is protein binding. […] It is not sufficient for a potential neurotherapeutic agent to move across the BBB—it also has to stay in the brain long enough to exert its desired action. This means that it also has to avoid being a substrate for a variety of transport proteins that work to extrude compounds from the brain.

[4] = test system: mutant tau (HT7), Hsp70, p35; test: One dose PU-DZ8 in 6 month JNPL3 mice, S1 fraction Western blot (FIG. 9); assay type: in vivo; conditions: one dose 75 mg/kg IP, subcortical S1
Protocol: JNPL3 female mice 6 months of age were treated IP with the Hsp90 inhibitor PU-DZ8 (75 mg/kg) and sacrificed various times as indicated in FIG. 9. Brains were divided in subcortical and cortical regions and processed using the Greenberg and Davies extraction protocol (77). Sarkosyl soluble fractions (S1) extracted from the subcortical region were analyzed by WB for p35, cdk5, mutant tau (HT7), Hsp90 and Hsp70. Protein bands were normalized to actin and plotted as relative change from untreated mice.

[5] = test system: mTau expression and phosphorylation, subcortical brain region; test: 30 day Hsp90 inhibitor treatment of JNPL3 mice; assay type: in vivo; conditions: 30 days
Protocol: To investigate whether modulation of mTau could be sustained over a longer Hsp90 inhibitor-treatment period, without being toxic to mice. JNPL3 mice were subjected for 30 days to these agents. Female JNPL3 mice 6.5 months of age (n=10) were administered i.p. vehicle (n=5) or one of the Hsp90 inhibitors, PU24FC1 (200 mg/kg) or PU-DZ8 (75 mg/kg) (n = 5), on a daily, five-times per week schedule and animals were sacrificed at 8 h following the last administered dose of inhibitor. […] Furthermore, no visible internal organ damage was detected at sacrifice upon gross inspection. Both S1 and P3 fractions extracted from the subcortical brain region of these mice were analyzed for mTau expression and phosphorylation.

CC(C)NCCCn1c(Cc2cc3c(cc2I)OCO3)nc2c(N)nc(F)nc21 [PU-DZ8]
water solubility [1]: water soluble | p35 levels ([2]; 8 h post-administration, P=0.0019): significant time-dependent reduction | Tau phosphorylation on Ser202 (antibody CP13) ([2]; 8 h post-administration, P=0.0078): alleviation of Tau phosphorylation | soluble WT Tau expression ([2]; hTau mice, cortical S1): no effect | cdk5 expression [3]: No significant changes | expressions of Akt and Raf-1 [3]: not altered | insoluble and hyperphosphorylated Tau (P3 fraction) ([3]; 4- to 6-month old mice): significant reduction | soluble precursor pool mTau (S1), subcortical brain regions ([3]; 4 h (P=0.0031), maintained up to 36 h): significant decrease | P-gp substrate (P-glycoprotein): not a substrate of P-pg | chaperone levels (hsp70) [4]: hsp70 increase | mutant protein mtau (HT7) [4]: degradation | p35 in S1 fraction [5]: p35 reduction | toxicity (animal weight, fur appearance, appetite, posture) ([5]; daily five-times per week i.p., PU24FC1 200 mg/kg, PU-DZ8 75 mg/kg): No toxicity was observed | Tau expression and phosphorylation in S1 and P3 fractions ([5]; hTau P<0.0001, T231 P=0.0034 (FIG. 15)): significant reduction
